As a reminder, the IC50 is the point on the concentration scale where inhibition reaches its midpoint. By inhibition is commonly meant the change of the read-out against control, counted positive when it falls. One may read the GI50 as the concentration at which growth is held to half of that of the control. A high value points to lower sensitivity of the cells.

The text below walks through data of ChEMBL document CHEMBL1151945 (J Med Chem, 2009).

The target of assay [1] is Thymidylate synthase (Escherichia coli, UniProt C3SWJ7).
Thymidylate synthase (Escherichia coli, UniProt C3SWJ7), sequence (C3SWJ7 whole entry): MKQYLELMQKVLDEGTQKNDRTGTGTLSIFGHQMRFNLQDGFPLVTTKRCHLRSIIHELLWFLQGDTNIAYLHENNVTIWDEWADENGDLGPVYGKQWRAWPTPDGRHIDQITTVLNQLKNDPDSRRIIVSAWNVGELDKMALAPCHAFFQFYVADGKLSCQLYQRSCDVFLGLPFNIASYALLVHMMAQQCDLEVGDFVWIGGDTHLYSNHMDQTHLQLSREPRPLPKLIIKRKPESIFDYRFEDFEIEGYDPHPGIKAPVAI
Assay [2] has as its target T1, Bifunctional dihydrofolate reductase-thymidylate synthase (Toxoplasma gondii, UniProt Q07422).
T1 sequence (Q07422 whole entry): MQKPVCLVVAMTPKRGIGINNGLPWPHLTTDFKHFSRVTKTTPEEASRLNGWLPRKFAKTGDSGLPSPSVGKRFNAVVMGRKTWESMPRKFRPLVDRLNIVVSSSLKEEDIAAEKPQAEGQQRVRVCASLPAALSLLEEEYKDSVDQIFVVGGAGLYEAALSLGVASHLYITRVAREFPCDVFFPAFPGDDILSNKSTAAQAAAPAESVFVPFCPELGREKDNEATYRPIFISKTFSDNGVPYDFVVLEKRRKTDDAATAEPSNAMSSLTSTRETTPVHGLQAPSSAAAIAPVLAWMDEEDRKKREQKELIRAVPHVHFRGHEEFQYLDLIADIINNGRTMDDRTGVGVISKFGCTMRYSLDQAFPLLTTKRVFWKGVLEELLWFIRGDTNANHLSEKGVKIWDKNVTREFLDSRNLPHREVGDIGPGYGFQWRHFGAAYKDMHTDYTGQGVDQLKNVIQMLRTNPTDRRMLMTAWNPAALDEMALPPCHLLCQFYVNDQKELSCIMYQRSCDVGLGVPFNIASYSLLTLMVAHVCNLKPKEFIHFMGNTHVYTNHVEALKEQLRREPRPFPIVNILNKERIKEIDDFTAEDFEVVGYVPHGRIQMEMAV

Assay [3] has as its target T1, Bifunctional dihydrofolate reductase-thymidylate synthase. This is another data set of the same source.
In assay [4] the target is T2, Dihydrofolate reductase (Homo sapiens, UniProt P00374).
T2 sequence (P00374 whole entry): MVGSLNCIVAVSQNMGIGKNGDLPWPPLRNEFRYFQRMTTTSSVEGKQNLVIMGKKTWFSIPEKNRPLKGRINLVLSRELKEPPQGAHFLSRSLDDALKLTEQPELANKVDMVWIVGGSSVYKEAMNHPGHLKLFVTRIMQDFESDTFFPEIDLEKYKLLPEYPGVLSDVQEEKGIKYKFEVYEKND

Assay [5] deals with Thymidylate synthase (Homo sapiens, UniProt P04818).
Thymidylate synthase (Homo sapiens, UniProt P04818), sequence (P04818 whole entry): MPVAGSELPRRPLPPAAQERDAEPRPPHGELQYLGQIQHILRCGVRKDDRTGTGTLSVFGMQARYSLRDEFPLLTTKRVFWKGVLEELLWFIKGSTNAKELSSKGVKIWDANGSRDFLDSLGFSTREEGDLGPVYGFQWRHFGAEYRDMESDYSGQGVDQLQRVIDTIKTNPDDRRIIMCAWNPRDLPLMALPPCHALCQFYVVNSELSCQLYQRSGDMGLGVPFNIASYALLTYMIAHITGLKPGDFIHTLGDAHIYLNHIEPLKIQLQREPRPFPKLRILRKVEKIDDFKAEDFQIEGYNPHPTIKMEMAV
Assay [6] addresses T3, Dihydrofolate reductase (Escherichia coli) (UniProt P0ABQ4).
T3 sequence (whole entry): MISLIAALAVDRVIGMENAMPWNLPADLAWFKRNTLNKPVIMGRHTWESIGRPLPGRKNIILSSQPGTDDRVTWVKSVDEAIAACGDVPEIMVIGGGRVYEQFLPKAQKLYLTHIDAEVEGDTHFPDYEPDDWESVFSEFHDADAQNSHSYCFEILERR
As to the kind of experiment: Inhibition of Escherichia coli dihydrofolate reductase at 31 uM.

The target in assay [7] is T3, Dihydrofolate reductase (Escherichia coli). As to the kind of experiment: Inhibition of Escherichia coli dihydrofolate reductase at 3 uM.
Assay [8] has the same target. Put plainly: Inhibition of Escherichia coli dihydrofolate reductase at […].
Assay [9] concerns the target Thymidylate synthase (Escherichia coli) (UniProt C3SWJ7). Put plainly: Inhibition of Escherichia coli thymidylate synthase at 23 uM.
Assay [10] addresses T4, Bifunctional dihydrofolate reductase-thymidylate synthase (Toxoplasma gondii) (UniProt Q07422).
T4 sequence (whole entry): T1 sequence (Q07422 whole entry)
Particulars: 23 uM.

In assay [11] the target is T3, Dihydrofolate reductase (Escherichia coli). Put plainly: Inhibition of Escherichia coli dihydrofolate reductase at 28 uM.
The nature of assay [12]: cells. The settings on record: Homo sapiens, 786-0.
The nature of assay [13]: cells. The settings on record: Homo sapiens, NCI-H525.
Assay [14] has as its system NCI-H23. As to the kind of experiment: cells. The settings on record: Homo sapiens.
Assay [15] concerns MOLT-4. Put plainly: cells. Particulars: Homo sapiens.
Assay [16] deals with CCRF-CEM. As to the kind of experiment: cells. The settings on record: Homo sapiens.
The subject of assay [17] is SN12C. As to the kind of experiment: cells. The settings on record: Homo sapiens.
Assay [18] has as its system HCC 2998. As to the kind of experiment: cells. The settings on record: Homo sapiens.
In assay [19] the test system is M14. As to the kind of experiment: cells. Particulars: Homo sapiens.
Assay [20] has as its system OVCAR-8. Put plainly: cells. Particulars: Homo sapiens.
The test system of assay [21] is NCI-H460. As to the kind of experiment: cells. The settings on record: Homo sapiens.
The subject of assay [22] is LOX IMVI. Put plainly: cells. Particulars: Homo sapiens.
The subject of assay [23] is HCT-116. As to the kind of experiment: cells. Particulars: Homo sapiens.
Assay [24] relates to HL-60(TB). As to the kind of experiment: cells. The settings on record: Homo sapiens.
In assay [25] the target is T3, Dihydrofolate reductase (Escherichia coli). As to the kind of experiment: Inhibition of Escherichia coli dihydrofolate reductase at 27 uM.

Thymidylate synthase (Escherichia coli), sequence (C3SWJ7 1-264): as the sequence (C3SWJ7 whole entry) above

On to `CCc1sc2nc(N)[nH]c(=O)c2c1Sc1ccccc1Cl`, for which the IC50 in [1] was 2000 nM; in assay [2], 27 nM; in [3], 2500 nM; in assay [4] it was 600 nM; in assay [5], 1100 nM.

For `CCc1sc2nc(N)[nH]c(=O)c2c1Sc1ccc(Cl)c(Cl)c1`, the IC50 in assay [1] turned out to be 2300 nM; in assay [2] it was 8.1 nM; in [3], 1000 nM; in assay [4] it was 290 nM; in [5], 230 nM.

As for `CCc1sc2nc(N)[nH]c(=O)c2c1Sc1ccc(F)cc1`, the IC50 in assay [1] was 2900 nM; in [2] it was 25 nM; in assay [3], 2600 nM; in assay [4] it was 620 nM; in [5], 1300 nM. In assay [6], the inhibition was 15%.

In the case of `CCc1sc2nc(N)[nH]c(=O)c2c1Sc1ccc(Br)cc1`, the concentration for half-maximal inhibition (IC50) in assay [1] was 2200 nM; in [2], 13 nM; in assay [3], 2200 nM; in [4] it was 260 nM; in assay [5], 390 nM.

`CCc1sc2nc(N)[nH]c(=O)c2c1Sc1cccc(Cl)c1` showed an inhibition in assay [7] of 0%. Moreover, the IC50 came out at 2300 nM in assay [1]; 12 nM in assay [2]; 1800 nM in assay [3]; 300 nM in [4]; 380 nM in assay [5].

In the case of `CCc1sc2nc(N)[nH]c(=O)c2c1Sc1ccc(Cl)cc1`, the IC50 came out at 2500 nM in [1], 300 nM in [4] and 750 nM in assay [5].

`CCc1sc2nc(N)[nH]c(=O)c2c1Sc1cc(Cl)cc(Cl)c1` returned an inhibition in assay [8] of 0%. The IC50 in assay [1] worked out at 1200 nM; in assay [2], 14 nM; in [3] it was 1600 nM; in assay [4] it was 280 nM; in assay [5] it was 690 nM.

For `CCc1sc2nc(N)[nH]c(=O)c2c1Sc1ccncc1`, the concentration for half-maximal inhibition (IC50) in assay [1] is 2000 nM; in assay [2], 17 nM; in assay [3] it was 1700 nM; in [4], 350 nM.

With `CCc1sc2nc(N)[nH]c(=O)c2c1Sc1ccc([N+](=O)[O-])cc1`, the half-inhibitory concentration (IC50) in assay [1] is 1700 nM; in assay [2], 8.7 nM; in assay [3], 1000 nM; in assay [4], 260 nM; in assay [5] it was 220 nM.

For `CCc1sc2nc(N)[nH]c(=O)c2c1Sc1cc(OC)ccc1OC`, the IC50 in assay [1] is above 23000 nM; in [2], 14 nM; in assay [4], 840 nM; in assay [5] it was 4600 nM. In addition, the inhibition in assay [9] was found to be 11%; in assay [10], 29%; in assay [11], 0%.

Regarding `CCc1sc2nc(N)[nH]c(=O)c2c1Sc1ccccc1`, the IC50 is 28000 nM in assay [1]; 33 nM in assay [2]; 8400 nM in [3]; 2600 nM in [4]; 5600 nM in [5].

For `Cc1sc2nc(N)[nH]c(=O)c2c1Sc1ccc(C(=O)N[C@@H](CCC(=O)O)C(=O)O)cc1`, the GI50 is above 100000 nM in assay [12]; above 100000 nM in assay [13]; above 100000 nM in assay [14]; above 100000 nM in [15]; 94500 nM in assay [16]; above 100000 nM in assay [17]. For the same molecule, the GI50 in assay [18] was above 100000 nM; in assay [19], above 100000 nM; in assay [20] it was above 100000 nM; in [21], 41200 nM; in assay [22] it was 65600 nM; in assay [23], above 100000 nM.

`CCc1sc2nc(N)[nH]c(=O)c2c1Sc1ccc(C(=O)N[C@@H](CCC(=O)O)C(=O)O)cc1`: the GI50 in assay [12] came to 817 nM; in [13], 7800 nM; in assay [14], 9400 nM; in assay [15] it was 4780 nM; in [16], 853 nM; in assay [24] it was 497 nM. Further, the GI50 in assay [17] amounted to 3310 nM; in assay [18], 965 nM; in assay [19], 4320 nM; in assay [20], 579 nM; in assay [21], 959 nM; in assay [22], 90.9 nM. Moreover, in assay [23], the GI50 was found to be 284 nM. The IC50 in assay [1] was 18 nM; in assay [2], 2.1 nM; in assay [3] it was 90 nM; in assay [4], 19 nM; in [5], 54 nM.

In the case of `CCc1sc2nc(N)[nH]c(=O)c2c1Sc1ccc2ccccc2c1`, the IC50 in assay [1] amounted to 1400 nM; in assay [2], 8.4 nM; in [3], 1100 nM; in [4], 2200 nM; in [5] it was 2300 nM.

With `CCc1sc2nc(N)[nH]c(=O)c2c1Sc1cc(OC)cc(OC)c1`, the inhibition in assay [25] was determined as 0%. The IC50 in assay [1] came to 1800 nM; in assay [2], 24 nM; in assay [3] it was 2300 nM; in assay [4], 540 nM; in [5] it was 1200 nM.
